Source: ChEMBL document CHEMBL5236572, “Bioactive Aurones, Indanones, and Other Hemiindigoid Scaffolds: Medicinal Chemistry and Photopharmacology Perspectives” (J Med Chem, 2022)
Converted amounts (≈) assume the structure as drawn. One block for each compound: values may come before it.

Experiments:
[1] = system: U-251; test: Antiproliferative activity against doxorubicin resistant human U-251 cells assessed as inhibition of cell viability incubated for 48 hrs by sulforhodamine B assay; type: functional, cell-based; details: U-251, 48 h
[2] = molecular target: Acetylcholinesterase (Homo sapiens, UniProt P22303); test: Inhibition of human AchE by Ellman's method
Chain of Acetylcholinesterase (P22303 whole entry): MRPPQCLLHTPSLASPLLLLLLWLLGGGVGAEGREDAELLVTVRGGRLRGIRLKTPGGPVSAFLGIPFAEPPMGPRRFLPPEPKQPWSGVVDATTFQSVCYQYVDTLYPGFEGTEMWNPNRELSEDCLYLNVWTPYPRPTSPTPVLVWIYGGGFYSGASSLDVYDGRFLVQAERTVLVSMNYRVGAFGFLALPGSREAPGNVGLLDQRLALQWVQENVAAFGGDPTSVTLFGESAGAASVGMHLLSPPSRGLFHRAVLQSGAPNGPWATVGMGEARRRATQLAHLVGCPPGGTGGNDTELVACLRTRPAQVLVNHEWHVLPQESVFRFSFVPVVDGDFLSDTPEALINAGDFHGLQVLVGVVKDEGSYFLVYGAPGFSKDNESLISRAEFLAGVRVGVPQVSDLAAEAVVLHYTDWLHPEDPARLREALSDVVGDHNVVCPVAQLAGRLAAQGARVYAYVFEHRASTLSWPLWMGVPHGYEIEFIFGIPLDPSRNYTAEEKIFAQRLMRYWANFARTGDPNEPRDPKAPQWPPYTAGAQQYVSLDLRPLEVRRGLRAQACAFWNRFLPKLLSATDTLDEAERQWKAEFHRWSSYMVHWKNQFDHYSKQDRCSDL

[3] = system: Schistosoma mansoni; test: Antischistosomal activity against adult stage of Schistosoma mansoni BH assessed assessed as inhibition of parasite death at 25 uM incubated for 24 hrs by light microscopy; type: functional
[4] = Cytotoxicity against mouse Peritoneal macrophage incubated for 24 hrs by MTT assay; type: toxicity, cell-based; details: peritoneal macrophages
[5] = molecular target: T1, Amine oxidase [flavin-containing] A (Homo sapiens, UniProt P21397); test: Inhibition of recombinant human MAO-A
T1 sequence (P21397 whole entry): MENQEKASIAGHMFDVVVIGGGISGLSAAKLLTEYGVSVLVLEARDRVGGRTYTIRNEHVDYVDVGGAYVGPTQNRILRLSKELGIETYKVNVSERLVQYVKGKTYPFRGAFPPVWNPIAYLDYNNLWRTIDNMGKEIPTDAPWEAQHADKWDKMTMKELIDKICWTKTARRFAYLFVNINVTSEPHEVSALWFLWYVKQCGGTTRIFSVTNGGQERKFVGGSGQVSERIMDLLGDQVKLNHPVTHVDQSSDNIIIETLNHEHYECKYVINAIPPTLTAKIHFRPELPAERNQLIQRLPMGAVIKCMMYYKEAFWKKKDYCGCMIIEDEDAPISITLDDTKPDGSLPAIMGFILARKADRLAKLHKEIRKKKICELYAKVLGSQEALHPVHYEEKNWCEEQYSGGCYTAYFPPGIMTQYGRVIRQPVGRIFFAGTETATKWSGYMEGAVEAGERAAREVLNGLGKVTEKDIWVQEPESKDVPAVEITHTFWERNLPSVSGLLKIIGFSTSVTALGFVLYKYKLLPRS

[6] = molecular target: T2, Amine oxidase [flavin-containing] B (Homo sapiens, UniProt P27338); test: Inhibition of recombinant human MAO-B
T2 sequence (P27338 whole entry): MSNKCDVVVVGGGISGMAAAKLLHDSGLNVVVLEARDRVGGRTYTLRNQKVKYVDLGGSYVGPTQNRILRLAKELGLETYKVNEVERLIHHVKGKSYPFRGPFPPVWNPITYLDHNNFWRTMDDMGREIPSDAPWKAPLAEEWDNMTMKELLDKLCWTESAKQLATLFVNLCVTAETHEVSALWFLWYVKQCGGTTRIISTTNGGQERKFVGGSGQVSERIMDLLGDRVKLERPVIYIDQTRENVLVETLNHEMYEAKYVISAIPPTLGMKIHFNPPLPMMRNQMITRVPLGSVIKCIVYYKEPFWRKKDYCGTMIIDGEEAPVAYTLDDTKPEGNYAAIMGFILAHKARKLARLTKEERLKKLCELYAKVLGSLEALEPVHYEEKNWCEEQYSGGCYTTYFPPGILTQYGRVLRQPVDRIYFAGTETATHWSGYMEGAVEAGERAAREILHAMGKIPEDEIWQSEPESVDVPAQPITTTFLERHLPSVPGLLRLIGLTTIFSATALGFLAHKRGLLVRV

[7] = species on record: Homo sapiens; test: Selectivity index, ratio of IC50 for inhibition of recombinant human MAO-A to IC50 for inhibition of recombinant human MAO-B
[8] = molecular target: T3, Amyloid-beta precursor protein (Homo sapiens, UniProt P05067); test: Inhibition of amyloid beta (1 to 42) (unknown origin) self aggregation by ThT-based fluorometric assay
T3 sequence (P05067 whole entry): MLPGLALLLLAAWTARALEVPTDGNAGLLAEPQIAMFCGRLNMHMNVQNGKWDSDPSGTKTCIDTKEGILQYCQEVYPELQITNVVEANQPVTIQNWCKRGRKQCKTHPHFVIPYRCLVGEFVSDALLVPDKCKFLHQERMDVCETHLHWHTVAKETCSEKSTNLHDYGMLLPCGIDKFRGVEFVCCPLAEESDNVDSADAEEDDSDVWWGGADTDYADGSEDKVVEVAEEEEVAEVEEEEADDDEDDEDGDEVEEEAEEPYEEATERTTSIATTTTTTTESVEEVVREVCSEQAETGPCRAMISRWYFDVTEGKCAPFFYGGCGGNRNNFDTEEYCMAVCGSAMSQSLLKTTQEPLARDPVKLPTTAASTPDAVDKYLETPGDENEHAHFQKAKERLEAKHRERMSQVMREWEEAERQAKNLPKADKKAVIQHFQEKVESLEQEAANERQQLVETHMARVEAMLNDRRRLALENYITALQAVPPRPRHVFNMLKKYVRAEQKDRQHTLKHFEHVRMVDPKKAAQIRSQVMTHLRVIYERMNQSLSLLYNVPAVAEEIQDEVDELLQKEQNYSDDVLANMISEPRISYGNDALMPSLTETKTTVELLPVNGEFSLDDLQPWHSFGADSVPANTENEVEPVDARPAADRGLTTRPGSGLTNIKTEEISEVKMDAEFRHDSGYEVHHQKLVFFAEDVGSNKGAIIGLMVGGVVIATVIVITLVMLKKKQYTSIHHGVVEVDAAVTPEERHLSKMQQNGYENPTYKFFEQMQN

[9] = molecular target: T3, Amyloid-beta precursor protein; test: Inhibition of self-induced amyloid beta (1 to 42) (unknown origin) disaggregation by ThT-based fluorometric assay
[10] = system: Leishmania infantum; test: Antileishmanial activity against luciferase expressing […] amastigote stage of Leishmania infantum MOM/MA671/TMAP263 infected in PMA differentiated human THP-1 macrophage cells assessed as reduction in parasite growth incubated for 72 hrs by luminescence analysis; type: functional, organism-based; details: MOM/MA671/TMAP263, THP-1, 72 h
[11] = Selectivity index, ratio of IC50 for cytotoxicity against PMA differentiated human THP-1 cells to IC50 for antileishmanial activity against luciferase expressing axenic amastigote stage of Leishmania infantum MOM/MA671/TMAP263 infected in PMA differentiated human THP-1 macrophage cells; type: toxicity, cell-based; details: PMA-differentiated THP-1 cells, read-out: Ratio IC50
[12] = molecular target: Histone deacetylase 4 (Homo sapiens, UniProt P56524); test: Inhibition of human HDAC4 in HeLa cells extract incubated for 5 mins followed by substrate addition and measured after 15 mins using Fluor-de-Lys as substrate by spectrofluorometric analysis; type: cell-free
Chain of Histone deacetylase 4 (P56524 whole entry): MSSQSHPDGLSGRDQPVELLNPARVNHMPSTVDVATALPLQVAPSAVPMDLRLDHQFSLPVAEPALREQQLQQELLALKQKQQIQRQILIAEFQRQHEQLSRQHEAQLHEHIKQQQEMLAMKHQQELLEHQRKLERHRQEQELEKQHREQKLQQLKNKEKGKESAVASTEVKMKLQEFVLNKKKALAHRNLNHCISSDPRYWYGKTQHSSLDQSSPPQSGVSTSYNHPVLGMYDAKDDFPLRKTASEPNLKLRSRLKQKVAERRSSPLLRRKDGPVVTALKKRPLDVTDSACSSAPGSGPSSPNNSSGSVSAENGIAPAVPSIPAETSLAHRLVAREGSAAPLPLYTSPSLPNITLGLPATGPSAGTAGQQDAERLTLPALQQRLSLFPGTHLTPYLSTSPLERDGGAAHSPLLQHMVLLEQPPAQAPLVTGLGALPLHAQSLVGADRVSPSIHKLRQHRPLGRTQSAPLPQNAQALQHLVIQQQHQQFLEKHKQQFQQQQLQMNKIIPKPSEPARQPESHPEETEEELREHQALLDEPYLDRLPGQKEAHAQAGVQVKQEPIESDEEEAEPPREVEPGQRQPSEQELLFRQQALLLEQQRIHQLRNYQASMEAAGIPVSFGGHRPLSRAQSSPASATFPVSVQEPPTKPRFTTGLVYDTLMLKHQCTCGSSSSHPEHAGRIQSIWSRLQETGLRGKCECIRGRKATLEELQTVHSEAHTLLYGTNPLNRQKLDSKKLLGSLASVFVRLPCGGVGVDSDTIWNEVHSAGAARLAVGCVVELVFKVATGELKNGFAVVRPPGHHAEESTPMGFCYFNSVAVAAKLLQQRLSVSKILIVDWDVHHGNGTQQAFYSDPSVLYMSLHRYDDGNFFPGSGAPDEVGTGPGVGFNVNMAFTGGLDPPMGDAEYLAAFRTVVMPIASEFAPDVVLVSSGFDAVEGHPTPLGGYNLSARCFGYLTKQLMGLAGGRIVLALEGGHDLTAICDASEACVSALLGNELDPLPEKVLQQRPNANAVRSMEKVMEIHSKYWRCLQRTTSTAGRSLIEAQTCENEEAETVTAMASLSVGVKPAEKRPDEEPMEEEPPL

[13] = molecular target: Histone deacetylase 2 (Homo sapiens, UniProt Q92769); test: Inhibition of human HDAC2 in HeLa cells extract incubated for 5 mins followed by substrate addition and measured after 15 mins using Fluor-de-Lys as substrate by spectrofluorometric analysis; type: cell-free
Chain of Histone deacetylase 2 (Q92769 whole entry): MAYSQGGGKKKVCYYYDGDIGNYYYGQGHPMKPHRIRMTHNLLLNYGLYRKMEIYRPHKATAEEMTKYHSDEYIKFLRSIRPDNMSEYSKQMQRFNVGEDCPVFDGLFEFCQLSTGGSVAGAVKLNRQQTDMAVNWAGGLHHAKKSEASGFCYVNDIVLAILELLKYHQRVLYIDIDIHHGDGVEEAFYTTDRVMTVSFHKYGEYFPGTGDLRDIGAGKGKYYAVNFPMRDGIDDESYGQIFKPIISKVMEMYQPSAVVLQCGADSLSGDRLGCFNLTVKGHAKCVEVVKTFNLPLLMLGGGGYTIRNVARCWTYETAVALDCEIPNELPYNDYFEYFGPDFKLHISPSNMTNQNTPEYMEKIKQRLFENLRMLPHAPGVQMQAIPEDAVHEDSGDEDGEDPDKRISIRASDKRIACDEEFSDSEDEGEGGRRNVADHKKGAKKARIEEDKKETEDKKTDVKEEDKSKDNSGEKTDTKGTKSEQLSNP

[14] = molecular target: Histone deacetylase 7 (Homo sapiens, UniProt Q8WUI4); test: Inhibition of human HDAC7 in HeLa cells extract incubated for 5 mins followed by substrate addition and measured after 15 mins using Fluor-de-Lys as substrate by spectrofluorometric analysis; type: cell-free
Chain of Histone deacetylase 7 (Q8WUI4 whole entry): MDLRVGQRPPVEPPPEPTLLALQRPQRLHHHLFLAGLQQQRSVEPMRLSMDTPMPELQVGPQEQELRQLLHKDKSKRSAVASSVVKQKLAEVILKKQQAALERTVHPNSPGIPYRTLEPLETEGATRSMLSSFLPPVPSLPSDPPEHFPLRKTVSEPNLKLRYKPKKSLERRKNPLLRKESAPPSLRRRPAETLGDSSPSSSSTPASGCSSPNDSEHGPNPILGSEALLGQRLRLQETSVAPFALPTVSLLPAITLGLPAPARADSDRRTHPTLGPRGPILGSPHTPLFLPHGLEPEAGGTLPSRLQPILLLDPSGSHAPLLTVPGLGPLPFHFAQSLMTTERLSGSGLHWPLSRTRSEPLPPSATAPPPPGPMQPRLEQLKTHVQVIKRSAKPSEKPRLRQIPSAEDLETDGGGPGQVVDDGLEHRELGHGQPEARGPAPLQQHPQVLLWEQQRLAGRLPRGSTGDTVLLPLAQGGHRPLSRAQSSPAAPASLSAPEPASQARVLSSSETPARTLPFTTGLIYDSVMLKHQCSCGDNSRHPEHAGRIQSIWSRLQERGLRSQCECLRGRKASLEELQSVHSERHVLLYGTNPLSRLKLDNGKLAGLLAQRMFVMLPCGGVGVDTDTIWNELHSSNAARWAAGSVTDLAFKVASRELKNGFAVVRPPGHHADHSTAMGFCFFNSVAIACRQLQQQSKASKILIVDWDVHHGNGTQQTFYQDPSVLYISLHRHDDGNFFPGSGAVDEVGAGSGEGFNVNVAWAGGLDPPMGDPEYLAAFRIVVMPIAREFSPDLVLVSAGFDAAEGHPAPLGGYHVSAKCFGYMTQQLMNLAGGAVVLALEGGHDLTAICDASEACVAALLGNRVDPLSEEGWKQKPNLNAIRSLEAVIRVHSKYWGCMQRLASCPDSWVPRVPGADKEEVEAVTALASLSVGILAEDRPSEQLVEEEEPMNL

[15] = molecular target: Histone deacetylase 8 (Homo sapiens, UniProt Q9BY41); test: Inhibition of human HDAC8 in HeLa cells extract incubated for 5 mins followed by substrate addition and measured after 15 mins using Fluor-de-Lys as substrate by spectrofluorometric analysis; type: cell-free
Chain of Histone deacetylase 8 (Q9BY41 whole entry): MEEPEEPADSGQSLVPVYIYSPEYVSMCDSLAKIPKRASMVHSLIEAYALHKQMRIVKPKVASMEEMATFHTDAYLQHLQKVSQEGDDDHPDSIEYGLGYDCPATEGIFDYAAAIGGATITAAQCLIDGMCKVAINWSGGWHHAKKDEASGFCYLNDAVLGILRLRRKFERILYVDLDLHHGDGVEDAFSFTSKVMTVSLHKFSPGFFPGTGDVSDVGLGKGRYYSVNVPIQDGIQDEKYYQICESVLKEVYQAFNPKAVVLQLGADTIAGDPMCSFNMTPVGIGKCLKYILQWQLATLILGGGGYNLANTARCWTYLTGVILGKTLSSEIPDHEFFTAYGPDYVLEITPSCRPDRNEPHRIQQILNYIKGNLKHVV

[16] = Inhibition of synthetic AcPHF6 peptide aggregation measured upto 120 mins at 1 min interval by ThT-based fluorometric assay
[17] = system: HT-22; test: Neuroprotective activity against glutamate induced-neurotoxicity in mouse HT-22 cells assessed as cell viability preincubated for 4 hrs followed by glutamate stimulation and measured after 12 hrs by MTT assay; type: functional, cell-based
[18] = system: HT-22; test: Neuroprotective activity against glutamate induced-neurotoxicity in mouse HT-22 cells assessed as cell viability at 40 uM preincubated for 4 hrs followed by glutamate stimulation and measured after 12 hrs by MTT assay; type: functional; details: time 16 hrs, read-out: Activity
[19] = system: SH-SY5Y; test: Cytotoxicity against human SH-SY5Y cells assessed as reduction in cell viability; type: functional, cell-based
[20] = system: NB-4; test: Cytotoxicity against human NB-4 cells assessed as reduction in cell viability; type: functional, cell-based
[21] = system: Rhizopus arrhizus; test: Antifungal activity against Rhizopus oryzae assessed as reduction in fungal growth incubated for 24 hrs by disk diffusion assay; type: functional
[22] = system: Mucor mucedo; test: Antifungal activity against Mucor mucedo assessed as reduction in fungal growth incubated for 24 hrs by disk diffusion assay; type: functional
[23] = system: Aspergillus niger; test: Antifungal activity against Aspergillus niger assessed as reduction in fungal growth incubated for 24 hrs by disk diffusion assay; type: functional
[24] = system: Aspergillus flavus; test: Antifungal activity against Aspergillus flavus assessed as reduction in fungal growth incubated for 24 hrs by disk diffusion assay; type: functional
[25] = system: PC-3; test: Antiproliferative activity against doxorubicin resistant human PC-3 cells assessed as inhibition of cell proliferation by Beckman Coulter analysis; type: functional, cell-based
[26] = system: Pseudomonas aeruginosa; test: Antimicrobial activity against Pseudomonas aeruginosa assessed as bacterial growth inhibition; type: functional
[27] = system: Staphylococcus aureus; test: Antimicrobial activity against Staphylococcus aureus assessed as bacterial growth inhibition; type: functional
[28] = system: Aspergillus niger; test: Antifungal activity against Aspergillus niger assessed as reduction in fungal growth; type: functional
[29] = system: Aspergillus flavus; test: Antifungal activity against Aspergillus flavus assessed as reduction in fungal growth; type: functional
[30] = system: Plasmodium falciparum; test: Antimalarial activity against chloroquine-resistant erythrocyte stage Plasmodium falciparum assessed as growth inhibition incubated for 72 hrs by SYBR Green I dye based fluorescence analysis; type: functional, organism-based
[31] = system: Plasmodium berghei; test: Antimalarial activity against liver stage transgenic Plasmodium berghei (PbGFP-Luccon) infected in human Huh-7 cells assessed as reduction in parasite load incubated for 48 hrs by firefly luciferase assay; type: functional, organism-based; details: Huh-7, 48 h
[32] = system: HEK-293T; test: Cytotoxicity against human HEK293T cells assessed as reduction in cell viability incubated for 48 hrs by Alamar Blue assay; type: functional, cell-based
[33] = molecular target: Casein kinase 2 (Homo sapiens, UniProt P67870+P68400+P19784+Q8NEV1); test: Inhibition of recombinant human CK2 using RRRDDDSDDD as substrate in presence of [gamma-33P-ATP] incubated for 20 mins by beta-counter analysis; type: protein assay

IC50 [1]: 2.5 µM
Compound: O=C1/C(=C(\O)c2ccc3ccccc3c2)Cc2ccccc21

Compound: COc1cc2c(cc1OC)C(=O)/C(=C/c1ccc(OCCN3CCCCC3)cc1)C2
IC50 [2]: 0.3 µM

Compound: O=C1/C(=C/c2cccs2)Oc2ccccc21
inhibition at 25 µM [3]: 50%
CC50 at 24 h [4]: > 150 µM

IC50 [5]: 0.02 µM
IC50 [6]: 58 µM
Ratio IC50 [7]: > 2500
Compound: COc1cc2c(cc1OC)C(=O)/C(=C/c1ccc(N(C)C)cc1)C2

IC50 [6]: 0.03 µM
IC50 [8]: 1.8 µM
IC50 [9]: 7.9 µM
Compound: COc1cc2c(cc1OC)C(=O)/C(=C/c1ccc([N+](=O)[O-])cc1)C2

Compound: COc1cc(OC)c2c(c1)O/C(=C\c1ccccc1OC)C2=O
EC50 [10]: 1.3 µM
selectivity ratio [11]: 57.5

Ki [12]: 0.8 µM
Ki [13]: 1.66 µM
Ki [14]: 1.66 µM
Ki [15]: 1.66 µM
inhibition [16]: 62%
Compound: O=C1/C(=C/c2ccc(O)c(O)c2)Oc2cc(O)cc(O)c21 [AUREUSIDIN]
EC50 [17]: 11.9 µM
viability at 40 µM [18]: 97%

Compound: COc1ccc(/C=C2\Oc3c(ccc4c3C(=O)CC(C)(C)O4)C2=O)cc1
IC50 [19]: 3.4 µM
IC50 [20]: 4.8 µM

MIC [21]: 60 µM (≈ 15.8 µg/mL)
MIC [22]: 60 µM (≈ 15.8 µg/mL)
MIC [23]: 60 µM (≈ 15.8 µg/mL)
MIC [24]: 60 µM (≈ 15.8 µg/mL)
Compound: O=C1/C(=C/c2ccncc2)Cc2ccc3c(c21)CCO3

IC50 [25]: 0.74 µM
Compound: COc1ccc(/C=C2\Oc3c(ccc(OC(C)=O)c3COC(C)=O)C2=O)cc1OC

MIC [26]: 1.6 µM (≈ 0.509 µg/mL)
MIC [27]: 1.6 µM (≈ 0.509 µg/mL)
MIC [28]: 14 µM (≈ 4.46 µg/mL)
MIC [29]: 14 µM (≈ 4.46 µg/mL)
Compound: Cc1ccc2c(c1)C(=O)/C(=C/c1coc3ccc(C)cc3c1=O)O2

Compound: O=C1/C(=C/c2cccc(-c3ccc(C(F)(F)F)cc3)c2)Nc2ccccc21
EC50 [30]: 0.11 µM
EC50 [31]: > 100 µM
EC50 [32]: 0.81 µM

IC50 [33]: 0.0033 µM
Compound: O=C1/C(=C/c2ccc(O)c(Br)c2)Oc2c(Br)cccc21
